Data from patent US12503426B2, “Synthetic derivatives of oleoyl-lysophosphatidylinositol (oleoyl-LPI) and uses thereof” (LIPOVEXA SRL, priority 2017, dated 2025).

Experiments:
Glutag cells = experiment: GLP-1 secretion by Glutag cells; format: cell-based, murine; conditions: 2 hours
Summary of the method: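 Murine GLUTag and human NCI-H716 L-cells were incubated 2 h in FBS-free DMEM with LPI species, OEA or LPC, with optional 1 h pretreatment with PD98059 (50 μM) or H89 (10 μM). Total medium GLP-1 was measured by ELISA and normalised to basal control secretion.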

pancreatic islets = experiment: Glucose-stimulated insulin secretion (GSIS) of isolated islets; format: cell-based, mice; conditions: 16.7 mM glucose
Experimental: After euthanasia, pancreatic islets were isolated as described in detail elsewhere (Carter, J. D., S. B. Dula, K. L. Corbin, R. P. Wu and C. S. Nunemaker (2009), Biological Procedures Online, Vol 11(1), pp:3-31). Following purification, islets were rested overnight at 37° C. in a humidified atmosphere of 95% air and 5% CO2 in RPMI 1640 medium supplemented with 10% FBS, 100 units/ml penicillin and 0.1 mg/ml streptomycin.
Glucose-stimulated insulin secretion (GSIS) was performed on isolated mouse islets after resting them overnight in supplemented RPMI 1640 medium at 37° C. in a humidified atmosphere of 95% air and 5% CO2. Briefly, islets were hand-picked and placed in groups of five into individual micro centrifuge tubes. Islets were washed twice, then incubated with Krebs buffer (KRB, 115 mM NaCl; 4.7 mM KCl; 1.28 mM CaCl2·2H2O; 1.2 mM KH2PO4; 1.2 mM MgSO4·7H2O; 10 mM NaHCO3; 10 mM HEPES; 0.5% BSA; pH 7.4) supplemented with 1.1 mM glucose for 40 minutes at 37° C. Supernatants were discarded, then islets were incubated with KRB supplemented with 16.7 mM glucose for 20 minutes. Supernatants were collected for insulin determination using Mouse Ultrasensitive Insulin ELISA (Mercodia, Uppsala, Sweden) according to manufacturer instructions and data was reported as picograms of Insulin per islet in 20 minutes (pg/islet/20 min).

human GPR119 = target: T1, human GPR119 (Homo sapiens, UniProt Q8TDV5); experiment: cAMP assay in GPR119 transfected COS-7 cells; format: cell-based; conditions: COS-7 cells expressing human GPR119, agonists 30 min; read-out: EC50, production of cAMP
T1 construct: expressed in transfected cells; host or cells: COS-7 cells, calcium phosphate transfection
T1 sequence (Q8TDV5 1-335): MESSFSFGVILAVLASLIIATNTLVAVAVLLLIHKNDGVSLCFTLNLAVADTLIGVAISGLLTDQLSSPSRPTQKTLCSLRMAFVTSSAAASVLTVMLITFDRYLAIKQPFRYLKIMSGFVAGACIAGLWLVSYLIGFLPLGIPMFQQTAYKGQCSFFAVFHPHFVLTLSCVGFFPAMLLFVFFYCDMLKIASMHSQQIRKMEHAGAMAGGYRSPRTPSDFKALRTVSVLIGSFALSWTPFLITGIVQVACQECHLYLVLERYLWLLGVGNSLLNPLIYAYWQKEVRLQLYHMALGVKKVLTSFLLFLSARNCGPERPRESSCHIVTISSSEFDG
Experimental: COS-7 cells were cultured in Dulbecco's modified Eagle medium (DMEM) 1885 supplemented with 10% FBS, […] L-glutamine and 180 IU/ml penicillin+[…] streptomycin (Pen Strep) (Life Technologies, CA, USA) at 37° C. and 10% CO2. The COS-7 cells were transiently transfected with GPR119 or pcDNA by the calcium phosphate transfection method for 5 hours in 37° C., 10% CO2 as described by Kissow H, Hartmann B, Hoist J J, Viby N E, Hansen L S, Rosenkilde M M, Hare K J, Poulsen S S. Regul Pept. 2012. Vol: 179(1-3), pp 91-100; the disclosure of which is incorporated herein in its entirety by way of reference.
COS-7 cells were transfected with about 40 μg GPR119 DNA or pcDNA3 per […] flask. One day after transfection, the cells were seeded out (about 35,000 cell/well) in a 96 well white plate (Perkin Elmer, Massachusetts, USA). The cells were washed twice the following day and incubated for 30 min, at 37° C. with HBS and 1 mM IBMX (Sigma Aldrich, USA). Agonists were added for 30 min in the assay medium. The Hithunter® cAMP XS+ (DiscoveRx, Fremont, USA) was carried out by following the manufacturer's instructions.
Accordingly, the work outlined in this example evaluates whether activation of GPR119 by oleoyl-LPI in enteroendocrine L cell affect the proglucagon gene expression by monitoring the CREB activity. […]

Substance: oleoyl-lysophosphatidylinositol [oleoyl-LPI]
- GLP-1 secretion (Glutag cells; Glutag cells, normalised as percentage of cells treated with vehicle (control)): 126±5%
- effect of down-regulation of GPR55 on GLP-1 secretion (Glutag cells; siGPR55 transfected Glutag cells, oleoyl-LPI 20 μM): no effect on GLP-1 secretion
- GLP-1 secretion in siGPR119-transfected cells (Glutag cells; siGPR119 transfected Glutag cells, oleoyl-LPI 20 μM): significantly reduced the GLP-1 secretion to the basal level
- insulin secretion response to stimulation (pancreatic islets; GPR119−/− islets): completely lost the ability to respond
- enhancement of acute insulin secretion (pancreatic islets; wild type islets, oleoyl-LPI 20 μM, 20 minutes): approximately 50%
- EC50 (human GPR119): 0.239 µM
